Results reported in patent US8563259B2, “Complement-mediated thrombophilic assay” (The Trustees of the University of Pennsylvania, priority 2007, dated 2013).

Test system: TF expression induced by activated complement in normal primary cells (monocytes or neutrophils)
Experiment: modified PT (mPT) assay with supernatant of healthy primary cells stimulated with patient serum, with or without complement inhibitor
Type: cell-based, human
Excerpt: To test serum for complement activating activity, serum was obtained from patients diagnosed with various disorders. Serum was obtained from patients diagnosed with: antiphospholipid syndrome (APS; n=26), systemic lupus erythymatosus (SLE; n=9), rheumatoid arthritis (n=12), sepsis (n=6), metastatic cancer (n=8) and inherited hypercoagulation (n=9). Serum was also obtained from healthy individuals (n=22).
Freshly obtained primary cells (monocytes or neutrophils) obtained from healthy donors were suspended in phosphate buffered saline (PBS). In parallel, the cells were stimulated with patient serum and with patient serum that was pre-incubated for 30 minutes with either 15 μM Compstatin or 10 μM C5aR antagonist to inhibit complement. The cells were incubated with serum for approximately 2 to 2.5 hours at 37° C. Subsequently, supernatant from the serum-incubated cells was obtained by centrifugation at 1000×g for 10 minutes. The supernatant was then assessed in a modified PT assay.
In a standard PT assay, 100 μl patient plasma is mixed with 200 μl commercial thromboplastin (International Sensitivity Index (ISI) 1.0 or ISI 1.9), and time of clotting is assessed by measuring in seconds the time required for clot formation after thromboplastin is added. In the modified PT (mPT) assay, 100 μl platelet-poor plasma (PPP) from a healthy subject was used and about 120-130 μl of the commercial thromboplastin (also called tissue factor) was replaced with PBS (the total volume of clotting reaction remains stable, at 300 μl) in order to obtain a technical prolongation of the clotting time from about 12-13 seconds to about 32-37 seconds. To test the effect of the test serum on TF expression of healthy primary blood cells, the about 120-130 μl PBS was replaced with about 120-130 μl of supernatant from the primary cells stimulated with test serum. All mPT assays were performed independently by two experienced physicians.
When complement is activated in the test serum, the use of 120-130 μl supernatant in the mPT test reduces the clotting time from about 32-37 sec to about 18-20 seconds. This reduction in clotting time occurs because TF expression is induced in the normal primary cells by the activated complement. When the activated complement in the test serum has been inhibited (e.g., with Compstatin or C5aR antagonist), TF expression is not induced by activated complement in normal primary cells and the mPT remains unchanged (about 32 to about 37 seconds).

CC[C@H](C)[C@H](N)C(=O)N[C@H]1CSSC[C@@H](C(=O)N[C@H](C(N)=O)[C@@H](C)O)NC(=O)[C@H](CCCN=C(N)N)NC(=O)[C@H](Cc2cnc[nH]2)NC(=O)[C@H](Cc2cnc[nH]2)NC(=O)CNC(=O)[C@H](Cc2c[nH]c3ccccc23)NC(=O)[C@H](CC(=O)O)NC(=O)[C@H](CCC(N)=O)NC(=O)[C@H](C(C)C)NC(=O)[C@H](C(C)C)NC1=O [Compstatin, Ile-Cys-Val-Val-Gln-Asp-Trp-Gly-His-His-Arg-Cys-Thr]
sensitivity of the mPT test after Compstatin-mediated inhibition of complement (pro-coagulant activity completely abolished) (APS and SLE patients): 100%
Clotting time (APS serum (n = 26), serum pre-incubated 30 minutes with 15 μM Compstatin or 10 μM C5aR antagonist): 31.11 ± 0.26 s
Clotting time (Acute sepsis serum (n = 6), serum pre-incubated 30 minutes with 15 μM Compstatin or 10 μM C5aR antagonist): 28.97 ± 0.80 s
Clotting time (Healthy donor serum (n = 22), serum pre-incubated 30 minutes with 15 μM Compstatin or 10 μM C5aR antagonist): 31.19 ± 0.16 s
Clotting time (Inherited hypercoagulation serum (n = 9), serum pre-incubated 30 minutes with 15 μM Compstatin): 29.01 ± 1.08 s
Clotting time (Metastatic cancer serum (n = 8), serum pre-incubated 30 minutes with 15 μM Compstatin): 26.07 ± 1.21 s
Clotting time (Rheumatoid arthritis serum (n = 12), serum pre-incubated 30 minutes with 15 μM Compstatin): 30.26 ± 0.81 s
Clotting time (SLE serum (n = 9), serum pre-incubated 30 minutes with 15 μM Compstatin or 10 μM C5aR antagonist): 31.26 ± 0.17 s
difference in clotting time before and after inhibition in acute sepsis, as share of the time difference for either APS or SLE serum (acute sepsis serum versus APS or SLE serum): about 30%
effect of treatment on clotting time (sera from septic patients): partial inhibition
